Results as given in patent publication US20250281424A1 (New York Blood Center, Inc, priority 2020, published 2025).

Target: T1, human PF4 (Homo sapiens, UniProt P02776)
T1 construct: PF4 is a 70 amino acid, lysine-rich 7.8 kDa platelet-specific protein; made in house; host or cells: Escherichia coli BL21DE3 pLysS (pT7-7) and/or Drosophila S2 cells
T1 sequence (P02776 32-101): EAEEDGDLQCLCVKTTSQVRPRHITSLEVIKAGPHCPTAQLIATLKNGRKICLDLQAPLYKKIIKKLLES
Assay: Inhibition of PF4 tetramer formation (BS3 cross-linking, SDS-PAGE)
Assay type: biochemical
Conditions: for inhibition at 5 µM: 5 μM inhibitor; for inhibition at 5 µM / inhibition at 10 µM: read-out: % inhibition of PF4 tetramer formation at single concentration of inhibitor; for inhibition at 10 µM: 10 μM inhibitor (column A); for IC50: read-out: IC50 of PF4 tetramer formation inhibition
In short: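 Recombinant human wild-type PF4 (E. coli-expressed, heparin-purified), 10 μg/ml in PBS, incubated with compound 15 min at 37° C or 60 min at room temperature, then cross-linked with 0.2 mM BS3 for 30 min at room temperature. Reducing 12% SDS-PAGE; bands quantified as % tetramer, trimer, dimer, monomer versus compound-free control.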

Row | SMILES | inhibition at 5 µM | inhibition at 10 µM | IC50
1 | CC(C)(C)OC(=O)N1CCC[C@H]1C(=O)C1C(=O)c2ccc(-c3ccc4c(c3)C(=O)C(C(=O)[C@@H]3CCCN3C(=O)OC(C)(C)C)C4=O)cc2C1=O (stereo partly drawn) [Example 209, tert-butyl (2S)-2-{2′-[(2S)-1-[(tert-butoxy)carbonyl]pyrrolidine-2-carbonyl]-1,1′,3,3′-tetraoxo-1H,1′H,2H,2′H,3H,3′H-[5,5′-biindene]-2-carbonyl}pyrrolidine-1-carboxylate] | 75% | 96% | 4.2 µM
2 | CC(C)(C)OC(=O)N1CSC[C@H]1C(=O)C1C(=O)c2ccc(-c3ccc4c(c3)C(=O)C(C(=O)[C@@H]3CSCN3C(=O)OC(C)(C)C)C4=O)cc2C1=O (stereo partly drawn) [Example 210, tert-butyl (4R)-4-{2′-[(4R)-3-[(tert-butoxy)carbonyl]-1,3-thiazolidine-4-carbonyl]-1,1′,3,3′-tetraoxo-1H,1′H,2H,2′H,3H,3′H-[5,5′-biindene]-2-carbonyl}-1,3-thiazolidine-3-carboxylate] | 62% | 94% | ~5 µM
3 | CC(C)(C)OC(=O)N1CC2(CC(C(=O)C3C(=O)c4ccc(-c5ccc6c(c5)C(=O)C(C(=O)C5CC7(C5)CN(C(=O)OC(C)(C)C)C7)C6=O)cc4C3=O)C2)C1 (centres unmarked) [Example 211, tert-butyl 6-(2′-{2-[(tert-butoxy)carbonyl]-2-azaspiro[3.3]heptane-6-carbonyl}-1,1′,3,3′-tetraoxo-1H,1′H,2H,2′H,3H,3′H-[5,5′-biindene]-2-carbonyl)-2-azaspiro[3.3]heptane-2-carboxylate] | 76% | 95% | 3.3 µM
4 | CC(C)(C)OC(=O)N1CCCC[C@H]1C(=O)C1C(=O)c2ccc(-c3ccc4c(c3)C(=O)C(C(=O)[C@@H]3CCCCN3C(=O)OC(C)(C)C)C4=O)cc2C1=O (stereo partly drawn) [Example 212, tert-butyl (2S)-2-{2′-[(2S)-1-[(tert-butoxy)carbonyl]piperidine-2-carbonyl]-1,1′,3,3′-tetraoxo-1H,1′H,2H,2′H,3H,3′H-[5,5′-biindene]-2-carbonyl}piperidine-1-carboxylate] | 91% | 88% | 5.5 µM
5 | COC(=O)N1CCC[C@H]1C(=O)C1C(=O)c2ccc(-c3ccc4c(c3)C(=O)C(C(=O)[C@@H]3CCCN3C(=O)OC)C4=O)cc2C1=O (stereo partly drawn) [Example 213, methyl (2S)-2-{2′-[(2S)-1-(methoxycarbonyl)pyrrolidine-2-carbonyl]-1,1′,3,3′-tetraoxo-1H,1′H,2H,2′H,3H,3′H-[5,5′-biindene]-2-carbonyl}pyrrolidine-1-carboxylate] | 87% | 89% | 4.8 µM
6 | C[C@@H]1CC[C@@H](C(=O)C2C(=O)c3ccc(-c4ccc5c(c4)C(=O)C(C(=O)[C@@H]4CC[C@@H](C)N4C(=O)OC(C)(C)C)C5=O)cc3C2=O)N1C(=O)OC(C)(C)C (stereo partly drawn) [Example 214, tert-butyl (2S,5R)-2-{2′-[(2S,5R)-1-[(tert-butoxy)carbonyl]-5-methylpyrrolidine-2-carbonyl]-1,1′,3,3′-tetraoxo-1H,1′H,2H,2′H,3H,3′H-[5,5′-biindene]-2-carbonyl}-5-methylpyrrolidine-1-carboxylate] | – | – | 4 µM
7 | CC(C)(C)OC(=O)N1C[C@H](F)C[C@H]1C(=O)C1C(=O)c2ccc(-c3ccc4c(c3)C(=O)C(C(=O)[C@@H]3C[C@@H](F)CN3C(=O)OC(C)(C)C)C4=O)cc2C1=O (stereo partly drawn) [Example 215, tert-butyl (2S,4R)-2-{2′-[(2S,4R)-1-[(tert-butoxy)carbonyl]-4-fluoropyrrolidine-2-carbonyl]-1,1′,3,3′-tetraoxo-1H,1′H,2H,2′H,3H,3′H-[5,5′-biindene]-2-carbonyl}-4-fluoropyrrolidine-1-carboxylate] | – | – | 2.4 µM
8 | CC(C)(C)OC(=O)N1C[C@@H]2[C@H](C1)[C@H]2C(=O)C1C(=O)c2ccc(-c3ccc4c(c3)C(=O)C(C(=O)[C@H]3[C@@H]5CN(C(=O)OC(C)(C)C)C[C@@H]53)C4=O)cc2C1=O (stereo partly drawn) [Example 216, tert-butyl (1R,5S,6R)-6-{2′-[(1R,5S,6R)-3-[(tert-butoxy)carbonyl]-3-azabicyclo[3.1.0]hexane-6-carbonyl]-1,1′,3,3′-tetraoxo-1H,1′H,2H,2′H,3H,3′H-[5,5′-biindene]-2-carbonyl}-3-azabicyclo[3.1.0]hexane-3-carboxylate] | 82% | 91% | 2.5 µM
9 | COC(=O)[C@@H]1C[C@H]1C(=O)C1C(=O)c2ccc(C(=O)c3ccc4c(c3)C(=O)C(C(=O)[C@@H]3C[C@H]3C(=O)OC)C4=O)cc2C1=O (stereo partly drawn) [Example 217, methyl (1R,2R)-2-(5-{2-[(1R,2R)-2-(methoxycarbonyl)cyclopropanecarbonyl]-1,3-dioxo-2,3-dihydro-1H-indene-5-carbonyl}-1,3-dioxo-2,3-dihydro-1H-indene-2-carbonyl)cyclopropane-1-carboxylate] | 91% | 95% | 1.2 µM
10 | COC(=O)[C@@H]1C[C@H]1C(=O)C1C(=O)c2ccc(S(=O)(=O)c3ccc4c(c3)C(=O)C(C(=O)[C@@H]3C[C@H]3C(=O)OC)C4=O)cc2C1=O (stereo partly drawn) [Example 218, methyl (1R,2R)-2-[5-({2-[(1R,2R)-2-(methoxycarbonyl)cyclopropanecarbonyl]-1,3-dioxo-2,3-dihydro-1H-inden-5-yl}sulfonyl)-1,3-dioxo-2,3-dihydro-1H-indene-2-carbonyl]cyclopropane-1-carboxylate] | 67% | 92% | 4 µM
11 | COC(=O)C(C)(C)CC(=O)C1C(=O)c2ccc(C(=O)c3ccc4c(c3)C(=O)C(C(=O)CC(C)(C)C(=O)OC)C4=O)cc2C1=O (centres unmarked) [Example 219] | 68% | 91% | 5 µM
12 | CO[C@@H]1O[C@H](C(=O)C2C(=O)c3ccc(S(=O)(=O)c4ccc5c(c4)C(=O)C(C(=O)[C@H]4O[C@@H](OC)[C@H]6OC(C)(C)O[C@@H]64)C5=O)cc3C2=O)[C@H]2OC(C)(C)O[C@H]12 (stereo partly drawn) [Example 220, 2-[(3aS,4S,6R,6aS)-6-methoxy-2,2-dimethyl-tetrahydro-2H-furo[3,4-d][1,3]dioxole-4-carbonyl]-5-({2-[(3aS,4S,6R,6aS)-6-methoxy-2,2-dimethyl-tetrahydro-2H-furo[3,4-d][1,3]dioxole-4-carbonyl]-1,3-dioxo-2,3-dihydro-1H-inden-5-yl}sulfonyl)-2,3-dihydro-1H-indene-1,3-dione] | 90% | 92% | 2.5 µM
13 | CC(C)(C)OC(=O)N1CSC[C@@H]1C(=O)C1C(=O)c2ccc(S(=O)(=O)c3ccc4c(c3)C(=O)C(C(=O)[C@H]3CSCN3C(=O)OC(C)(C)C)C4=O)cc2C1=O (stereo partly drawn) [Example 221, tert-butyl (4S)-4-[5-({2-[(4S)-3-[(tert-butoxy)carbonyl]-1,3-thiazolidine-4-carbonyl]-1,3-dioxo-2,3-dihydro-1H-inden-5-yl}sulfonyl)-1,3-dioxo-2,3-dihydro-1H-indene-2-carbonyl]-1,3-thiazolidine-3-carboxylate] | 92% | 97% | 2.3 µM
